PubChem BioAssay AID179 (DTP/NCI, 2004)
The source made the active and inactive calls.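 How the source made its calls: active means compounds giving half or more protection of infected cells from virus-caused growth loss, again on retest; inactive means the rest.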

Tested on: CEM cells HIV-1 protection, formazan growth assay
Assay: NCI AIDS Antiviral Assay
Conditions: for IC50: measured here: growth of uninfected CEM cells
In short: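 Five concentrations of each compound were applied to infected and uninfected human CEM cells. Protection from HIV-1 was judged from growth measured with a soluble formazan assay.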

Row | Structure (SMILES) | EC50 [µM] | IC50 [µM] | outcome
1 | N#C/C(=C\c1ccccc1Br)C(=O)c1ccccc1 | > 32.4 | > 32.4 | –
2 | OC(Cn1cncn1)(Cn1cncn1)c1ccc(Cl)cc1Cl | > 741 | 490 | –
3 | CC1(C)O[C@]2(C)CC[C@@H]1[C@@H](O)[C@@H]2N1CCCC1 | > 417 | > 417 | –
4 | CCN(CC(COc1ccc2c(c1)[n+]([O-])nc(N)[n+]2[O-])OC(C)=O)C(C)=O (stereo not drawn) | > 200 | 14.8 | –
5 | O=c1ccn(COC(COCc2ccccc2)COCc2ccccc2)c(=O)[nH]1 | – | – | inactive
6 | CCCCCCC[CH2][Sn]1([CH2]CCCCCCC)[O]C(=O)c2cccnc2[O]1 | > 7.41 | > 7.41 | –
7 | COc1ccc(-n2c(=O)n(C)c(=O)n2-c2c(C)c(C)c(C)c(C)c2C)cc1 | > 100 | 18.6 | –
8 | O=C(Cc1ccccc1)NN1C(=O)C(Cl)C1c1ccc([N+](=O)[O-])cc1 (stereo not drawn) | > 20 | > 20 | –
9 | Cc1ccc(S(=O)/C=C(\NC(=O)OCc2ccccc2)C(F)(F)F)cc1 (stereo not drawn) | – | – | inactive
10 | NC(=O)C1CCCN1C(=O)N(CCCl)N=O (stereo not drawn) | > 200 | > 200 | –
11 | COc1cc2c(c3c1[C@@H](O)[C@@H](C)[C@@H](C)O3)C=CC(C)(C)O2 | > 200 | 75.9 | –
12 | CCN(CC)CCCCC1CCN(CC(=O)N2c3ccccc3NC(=O)CC2C)CC1 (stereo not drawn) | > 251 | 38.9 | –
13 | CC1NC(=O)COC1c1ccccc1 (stereo not drawn) | > 200 | > 200 | –
14 | Oc1cc(O)c2c(c1)OC(c1ccc(O)c(O)c1)C(OC1(c3cc(O)c(O)c(O)c3)Oc3cc(O)cc(O)c3C(O)C1O)C2 (stereo not drawn) | > 200 | 11.5 | –
15 | NCCCN(CCCN(C(=O)Nc1ccccc1)c1ccccc1)C(=O)Nc1ccccc1 | > 200 | 55 | –
16 | Cc1cc(-c2cc(C(C)(C)C)c(O)c(C(C)(C)C)c2)c(C)cc1-c1cc(C(C)(C)C)c(O)c(C(C)(C)C)c1 | > 100 | > 100 | –
17 | CCOc1ccccc1NC(=O)C(=O)CC(=O)C1=C(C)Nc2ccccc2S1 | > 117 | > 117 | –
18 | CC(CCC[C@H](C)CO)[C@H]1[C@@H](O)C(O)C2[C@@H]3C[C@@H](O)C4(O)C[C@@H](O)CC[C@]4(C)C3CC[C@@]21C (stereo partly drawn) | > 200 | 107 | –
19 | CCOC(=O)/C(C#N)=C/c1cccc(Br)c1 | – | – | inactive
20 | Nc1ncnc2nc(CO)[nH]c12 | > 158 | > 158 | –
21 | N#C/C(C(=O)Nc1ccc(Cl)cc1)=C(/N)N1CCCC1 | > 200 | > 200 | –

Row | Structure (SMILES) | EC50 [µM] | IC50 [µM] | outcome
22 | Cc1nc2ccc(S(=O)(=O)Nc3nccs3)cc2c(=O)n1NS(=O)(=O)c1nccs1 | > 200 | 49 | –
23 | COc1cc(C)cc2c(-c3ccc(O)c4c(OC)cc(C)cc34)ccc(O)c12 | > 100 | 2.95 | –
24 | O=C(Sc1ccccc1)n1nc(Cl)c2ccc([N+](=O)[O-])cc21 | > 200 | 43.7 | –
25 | Nc1ccc(Sc2nnc(N)s2)cc1 | > 224 | > 224 | –
26 | Cc1ccc(S(=O)(=O)N2CCN3CCN(CCN(C)CCN4CCN(CC4)CCN(S(=O)(=O)c4ccc(C)cc4)CCN(S(=O)(=O)c4ccc(C)cc4)CCN(S(=O)(=O)c4ccc(C)cc4)CCN(S(=O)(=O)c4ccc(C)cc4)CCN4CCN(CCN(C)CCN5CCN(CC5)CCN(S(=O)(=O)c5ccc(C)cc5)CCN(S(=O)(=O)c5ccc(C)cc5)CCN(S(=O)(=O)c5ccc(C)cc5)CC2)CC4)CC3)cc1 | > 5.01 | 0.724 | –
27 | O=c1oc2ccccc2cc1/C=N/N1C(=S)N(c2ccccc2)C(=Nc2ccccc2)C1=Nc1ccccc1 | > 200 | > 200 | –
28 | COc1ccc(CCn2cnn3c(=O)c4ccccc4nc3c2=O)cc1OC | > 13.8 | > 13.8 | –
29 | OC[C@H]1NC[C@@H](O)[C@@H](O)[C@H]1O | – | – | inactive
30 | C=C(CC1CCCS(=O)(=O)C1)S(=O)(=O)c1ccc(C)cc1 (stereo not drawn) | > 200 | > 200 | –
31 | COc1cc(O)c(C(=O)/C=C/c2ccc(OC)c(OCc3ccccc3)c2)c(OC)c1 | – | – | inactive
32 | CC1(C)CCc2ccc(OCCC(=O)O)cc2O1 | – | – | inactive
33 | CN(C)CC1C2C=CC(C3CC23)C1CN(C)C (stereo not drawn) | – | – | inactive
34 | COc1cc(CC(=O)O)c(C(=O)c2ccc([N+](=O)[O-])cc2)cc1OC | > 200 | > 200 | –
35 | O=C1c2c(ccc3c2CCC3)CC12Cc1ccccc1C2 | > 200 | > 200 | –
36 | CCCCOC(=O)C(=O)C(CC(C(=O)Cc1ccccc1)c1ccccc1)C(=O)C=C(C)C (stereo not drawn) | > 112 | > 112 | –
37 | CC1=C(C(=O)NNC(=O)C[N+](C)(C)C)CC(C(=O)NNC(=O)C[N+](C)(C)C)=C(C)N1 | > 200 | 95.5 | –
38 | ClCCCc1ccccc1C1=NCCc2ccccc21 | > 200 | 5.25 | –
39 | COc1ccc(/C=C2\CCc3ccccc3C2=O)cc1 | > 19.5 | 12.6 | –
40 | Cc1ccc2c(c1)nc1n2C(c2c(F)cccc2F)SC1 (stereo not drawn) | > 200 | 33.1 | –
41 | N#CC(/C=C/c1ccccc1)NCCc1ccccc1 (stereo not drawn) | > 10.5 | > 10.5 | –
42 | OC(c1ccccc1)c1c(-c2ccccc2)oc(-c2ccccc2)c1C(O)c1ccccc1 (stereo not drawn) | – | – | inactive

Row | Structure (SMILES) | EC50 [µM] | IC50 [µM] | outcome
43 | Nc1nc(N)nc(-c2cccs2)n1 | > 200 | > 200 | –
44 | Nn1c(=O)[nH]c2ncn(Cc3ccccc3)c2c1=O | > 200 | > 200 | –
45 | O=C(O)CC/C(=N\Nc1nsc2ccccc12)c1ccc(Cl)cc1 | > 10.5 | 6.76 | –
46 | COc1ccc(CN2CCCN(Cc3ccc(OC)cc3)C2c2cc([N+](=O)[O-])ccc2O)cc1 | > 200 | 28.8 | –
47 | N#C[C@](CO)(NC(=O)OCc1ccccc1)C(F)F | > 200 | > 200 | –
48 | Nc1nc2c3nc(Nc4ccccc4)sc3nc(=S)n2c2sc(Nc3ccccc3)nc12 | > 11 | > 11 | –
49 | C#CC(C)(C)Oc1ccc2c(=O)c(-c3ccc(OC)c(OC)c3)coc2c1 | > 200 | 22.4 | –
50 | CCOC(=O)/C=C/CCCC(N1CCCC1)n1nnc2ccccc21 (stereo not drawn) | > 200 | 3.31 | –
51 | COC(=O)CC1C(C(C)(OC)OC)C(=O)N1[Si](C)(C)C(C)(C)C (stereo not drawn) | > 363 | > 363 | –
52 | CC1=CC(=O)N(n2c(Cc3ccccc3)n[nH]c2=O)C1=O | > 200 | > 200 | –
53 | CC(C)CCCC(C)[C@H]1CCC2[C@@H]3CCC4Nc5c(cnn5-c5ccccc5)C[C@]4(C)C3CC[C@@]21C (stereo partly drawn) | – | – | inactive
54 | O=C(Nc1ccc(Sc2ccc(N=Nc3c(O)c(S(=O)(=O)O)cc4cc(S(=O)(=O)O)ccc34)cc2)cc1)c1ccc(N=Nc2cc(S(=O)(=O)O)c3ccccc3c2O)cc1 | – | – | inactive
55 | O=C1c2ccccc2C(=O)N1[C@@H](Cc1ccccc1)C(=O)n1cccc1CO | > 200 | 174 | –
56 | COC(=O)c1c(C)cc(C)cc1OC | > 200 | 151 | –
57 | Cc1cc(C)nc(NS(=O)(=O)c2ccc(Nc3c4ccccc4nc4c(C(=O)Nc5ccc(S(=O)(=O)Nc6cc(C)on6)cc5)cccc34)cc2)n1 | > 35.5 | > 35.5 | –
58 | COc1ccc(C)cc1C(=C=C=C=C(c1cc(C)ccc1OC)c1ccccc1OCc1ccccc1)c1ccccc1OCc1ccccc1 | > 44.7 | 36.3 | –
59 | CC[C@H]1C2OC(=O)[C@H](C)C2[C@@]2(O)C[C@@H]([C@@H]3C[C@H](C)C(=O)O3)N3CCCC[C@@]12C3=O (stereo partly drawn) | > 200 | > 200 | –
60 | O=C(O)Cc1cccc2c(=O)c3cccc([N+](=O)[O-])c3oc12 | > 200 | > 200 | –
61 | COc1cc(N=Nc2ccc(N=Nc3cc(NC(C)=O)c(N=Nc4ccc(S(=O)(=O)O)cc4)cc3S(=O)(=O)O)c(C)c2)c(C)cc1NC(=O)c1ccc(N)cc1 | 3.55 | 102 | –
62 | CCCCCCCC/C=C/CCCCCCCC1CC(O)C(=O)O1 (stereo not drawn) | > 200 | 191 | –
63 | N#Cc1nc(CCN2C(=O)c3ccccc3C2=O)oc1N | > 200 | > 200 | –

Row | Structure (SMILES) | EC50 [µM] | IC50 [µM] | outcome
64 | O=C1OC(CC(=O)c2ccccc2Cl)C(Cl)=C1Cl (stereo not drawn) | > 117 | 69.2 | –
65 | O=c1ccn([C@@H]2C[C@H]2CO)c(=O)[nH]1 | – | – | inactive
66 | O=C(Nc1ccc(N=Nc2ccc(S(=O)(=O)O)cc2)cc1)c1ccc(N=Nc2ccc3c(S(=O)(=O)O)cccc3c2O)cc1 | 30.9 | 195 | –
67 | COc1ccc(C(SCC(N)C(=O)O)(c2ccc(OC)cc2)c2ccc(OC)cc2)cc1 (stereo not drawn) | > 200 | 31.6 | –
68 | CCCCCCCCCCCCCCCCCCN1CN(CO)C(=O)N(CO)C1 | > 200 | 166 | –
69 | O=C(CN1CCC(O)(c2ccccc2)CC1)N1CCN(/C=C/c2ccccc2)CC1 | > 200 | 58.9 | –
70 | Cc1cc(Br)ccc1N=NC1C(=O)ON=C1c1ccccc1 (stereo not drawn) | – | – | inactive
71 | O=c1[nH]c(/C=C(\O)c2ccncc2)nc2ccccc12 | > 2.82 | > 2.82 | –
72 | COc1cc2c(cc1OC)/C(=C\c1ccccc1N)C(=O)OC2 | – | – | inactive
73 | CC(C)(C)C(=O)O[C@H]1C=C[C@@H](O)[C@@H]2[C@H]1[C@@H]1C=C[C@H]2C1 | > 200 | 22.9 | –
74 | COC(=O)c1cc(C(c2cc(C(=O)OC)c(O)cc2C)C(Cl)(Cl)Cl)c(C)cc1O | > 200 | 5.75 | –
75 | O=C1CC(=O)n2cnc3cccc(c32)N1 | 17.4 | > 200 | –
76 | CS(=O)(=O)Nc1ccc2ccccc2c1 | > 200 | 158 | –
77 | CC(=O)OC(C(=O)[O][Sn]([CH3])([CH3])[CH3])c1ccccc1 (stereo not drawn) | – | – | inactive
78 | COc1ccc2c(c1)OCCCN(C)OC2c1ccccc1 (stereo not drawn) | – | – | inactive
79 | Clc1cc2c(c(CSc3nc4ccccc4n4cccc34)c1)OCOC2 | > 13.5 | > 13.5 | –
80 | CCN(C(C)=N)c1ccccc1 | > 295 | 67.6 | –
81 | COc1ccc(NC(=O)CC(=O)N2N=C(N(CCC#N)c3ccccc3Cl)CC2c2ccccc2)cc1 (stereo not drawn) | > 50.1 | > 50.1 | –
82 | CCOC(=O)CC(=O)ON(C)C(C)=O | > 251 | > 251 | –
83 | CC(=S)N=Cc1c(C)[nH]n(-c2ccccc2)c1=O | > 100 | 41.7 | –
84 | CCOC(=O)/C(=C/c1ccccc1Br)P(=O)(OCC)OCC | > 91.2 | 5.75 | –
